# The source made the active and inactive calls. The rule behind the calls is not given here.
# Legend:
# Cavia porcellus [1] = test: Appearance of ectopic beat (EA) in guinea pig tested for in vivo antiarrhythmic activity against ouabain induced cardiac arrhythmias at a dose of 10 mg/kg by iv administration; format: functional, Heart
# Rattus norvegicus [2] = test: Ventricular fibrillation (VF) in rats tested for in vivo Antiarrhythmic activity against aconitine induced arrhythmias at a dose of 10 mg/kg by iv administration; format: functional, Heart
# Rattus norvegicus [3] = test: Change in heart rate(HR) in rats tested for in vivo antiarrhythmic activity against aconitine induced arrhythmias at a dose of 25 mg/kg by po administration; value ranges from 11-17%; format: functional
# Cavia porcellus [4] = test: Cardiac arrest(CA) in guinea pig tested for in vivo antiarrhythmic activity against ouabain induced cardiac arrhythmias at a dose of 10 mg/kg by iv administration; format: functional, Heart
# Cavia porcellus [5] = test: Change in heart rate(HR) in guinea pig tested for in vivo antiarrhythmic activity against ouabain induced cardiac arrhythmias at a dose of 20 mg/kg by po administration; value ranges from 18-27%; format: functional
# Cavia porcellus [6] = species: Cavia porcellus; test: Antiarrhythmic effect expressed as percent reduction of the maximal rate of stimulation for antiarrhythmic activity in guinea pig auricle at 8 uM; format: functional, Heart
# Cavia porcellus [7] = test: Ventricular fibrillation (VF) in guinea pig tested for in vivo antiarrhythmic activity against ouabain induced cardiac arrhythmias at a dose of 20 mg/kg by po administration; format: functional, Heart
# Rattus norvegicus [8] = test: Ventricular fibrillation (VF) in rats tested for in vivo Antiarrhythmic activity against aconitine induced arrhythmias at a dose of 25 mg/kg by po administration; format: functional, Heart
# Rattus norvegicus [9] = test: Cardiac arrest(CA) in rats tested for in vivo Antiarrhythmic activity against aconitine induced arrhythmias at a dose of 25 mg/kg by po administration; format: functional, Heart
# Rattus norvegicus [10] = test: Ventricular tachycardia (VT) in rats tested for in vivo Antiarrhythmic activity against aconitine induced arrhythmias at a dose of 10 mg/kg by iv administration; format: functional, Heart
# Rattus norvegicus [11] = test: Cardiac arrest(CA) in rats tested for in vivo Antiarrhythmic activity against aconitine induced arrhythmias at a dose of 10 mg/kg by iv administration; format: functional, Heart
# Cavia porcellus [12] = test: Change in heart rate(HR) in guinea pig tested for in vivo antiarrhythmic activity against ouabain induced cardiac arrhythmias at a dose of 10 mg/kg by iv administration; value ranges from 17-18%; format: functional
# Rattus norvegicus [13] = test: Appearance of ectopic beat (EA) in rats tested for in vivo Antiarrhythmic activity against aconitine induced arrhythmias at a dose of 10 mg/kg by iv administration; format: functional, Heart
# Rattus norvegicus [14] = test: Ventricular tachycardia (VT) in rats tested for in vivo Antiarrhythmic activity against aconitine induced arrhythmias at a dose of 25 mg/kg by po administration; format: functional, Heart
# Cavia porcellus [15] = test: Ventricular fibrillation (VF) in guinea pig tested for in vivo antiarrhythmic activity against ouabain induced cardiac arrhythmias at a dose of 10 mg/kg by iv administration; format: functional, Heart
# Rattus norvegicus [16] = test: Change in heart rate(HR) in rats tested for in vivo antiarrhythmic activity against aconitine induced arrhythmias at a dose of 10 mg/kg by iv administration; value ranges from 18-30%; format: functional
# Cavia porcellus [17] = test: Cardiac arrest(CA) in […] guinea pig tested for in vivo antiarrhythmic activity against ouabain induced cardiac arrhythmias at a dose of 20 mg/kg by po administration; format: functional, Heart
# Cavia porcellus [18] = test: Appearance of ectopic beat (EA) in guinea pig tested for in vivo antiarrhythmic activity against ouabain induced cardiac arrhythmias at a dose of 20 mg/kg by po administration; format: functional, Heart
# Rattus norvegicus [19] = test: Appearance of ectopic beat (EA) in rats tested for in vivo Antiarrhythmic activity against aconitine induced arrhythmias at a dose of 25 mg/kg by po administration; format: functional, Heart
# [20] = Lipophilicity was determined; format: physicochemical; conditions: octanol/water
# Rattus norvegicus [21] = test: Change in heart rate(HR) in rats tested for in vivo antiarrhythmic activity against aconitine induced arrhythmia at a dose of 10 mg/kg by iv administration; value ranges from 16-34; format: functional
# Cavia porcellus [22] = test: Change in heart rate(HR) in guinea pig tested for in vivo antiarrhythmic activity against ouabain induced cardiac arrhythmias at a dose of 10 mg/kg by iv administration; value ranges from 17-30%; format: functional
# Cavia porcellus [23] = test: Change in heart rate(HR) in guinea pig tested for in vivo antiarrhythmic activity against ouabain induced cardiac arrhythmias at a dose of 20 mg/kg by po administration; value ranges from 10-35%; format: functional
# Rattus norvegicus [24] = test: Change in heart rate(HR) in rats tested for in vivo antiarrhythmic activity against aconitine induced arrhythmias at a dose of 25 mg/kg by po administration; value ranges from 16-34; format: functional
# Cavia porcellus [25] = species: Cavia porcellus; test: Antiarrhythmic effect expressed as percent reduction of the maximal rate of stimulation for antiarrhythmic activity in guinea pig auricle at 8 uM; NS means not significant; format: functional; conditions: Heart
compound,measurement,setting,value
C=C[C@H]1CN2CC[C@H]1C[C@@H]2[C@@H](O)c1ccnc2ccc(OC)cc12.C=C[C@H]1CN2CC[C@H]1C[C@@H]2[C@@H](O)c1ccnc2ccc(OC)cc12.O.O.O=S(=O)(O)O [QUINIDINE SULFATE],Amount of Ouabain used,Cavia porcellus [1],128.33
same,Amount of Acotine used,Rattus norvegicus [2],370
same,Change in heart rate,Rattus norvegicus [3],11%
same,Amount of Ouabain used,Cavia porcellus [4],187.59
same,Change in heart rate,Cavia porcellus [5],18%
same,Inhibition,Cavia porcellus [6],29.68%
same,Amount of Ouabain used,Cavia porcellus [7],201.34
same,Amount of Acotine used,Rattus norvegicus [8],416.36
same,Amount of Acotine used,Rattus norvegicus [9],581.06
same,Amount of Acotine used,Rattus norvegicus [10],252.72
same,Amount of Acotine used,Rattus norvegicus [11],523.64
same,Change in heart rate,Cavia porcellus [12],17%
same,Amount of Acotine used,Rattus norvegicus [13],156.24
same,Amount of Acotine used,Rattus norvegicus [14],237.02
same,Amount of Ouabain used,Cavia porcellus [15],167.78
same,Change in heart rate,Rattus norvegicus [16],18%
same,Amount of Ouabain used,Cavia porcellus [17],225.31
same,Amount of Ouabain used,Cavia porcellus [18],138.99
same,Amount of Acotine used,Rattus norvegicus [19],173.66
CC(C)OC(=O)C1CCN(CCCC(=O)c2ccc(F)cc2)CC1,Inhibition,Cavia porcellus [6],12%
same,Log P/(100-P),[20],-0.865
CCOC(=O)C1CCN(CCCC(=O)c2ccc(F)cc2)CC1,Inhibition,Cavia porcellus [6],25.66%
same,Log P/(100-P),[20],-0.462
COC(=O)C1CCN(CCCC(=O)c2ccc(F)cc2)CC1,Change in heart rate,Rattus norvegicus [21],16%
same,Amount of Ouabain used,Cavia porcellus [1],101.35
same,Amount of Acotine used,Rattus norvegicus [2],373.36
same,Amount of Ouabain used,Cavia porcellus [4],175.76
same,Change in heart rate,Cavia porcellus [22],17%
same,Inhibition,Cavia porcellus [6],24.33%
same,Amount of Ouabain used,Cavia porcellus [7],153.65
same,Amount of Acotine used,Rattus norvegicus [8],356.09
same,Amount of Acotine used,Rattus norvegicus [9],457.72
same,Amount of Acotine used,Rattus norvegicus [10],231.27
same,Amount of Acotine used,Rattus norvegicus [11],544.28
same,Change in heart rate,Cavia porcellus [23],10%
same,Amount of Acotine used,Rattus norvegicus [13],132.79
same,Log P/(100-P),[20],-0.493
same,Amount of Acotine used,Rattus norvegicus [14],226.74
same,Amount of Ouabain used,Cavia porcellus [15],138.04
same,Amount of Ouabain used,Cavia porcellus [17],187.05
same,Amount of Ouabain used,Cavia porcellus [18],124.56
same,Change in heart rate,Rattus norvegicus [24],16%
same,Amount of Acotine used,Rattus norvegicus [19],159.29
COC(=O)C1CCN(CCCOc2cccc(NC(C)=O)c2)CC1,Inhibition,Cavia porcellus [6],7%
same,Log P/(100-P),[20],-1.123
COC(=O)C1CCN(CCCN2CCN(c3ccccc3)CC2)CC1,Inhibition,Cavia porcellus [6],6%
same,Log P/(100-P),[20],-1.195
COC(=O)C1CCN(CCC(=O)N2CCN(c3ccc(F)cc3)CC2)CC1,Inhibition,Cavia porcellus [6],10%
same,Log P/(100-P),[20],-0.954
CCCOC(=O)C1CCN(CCCC(=O)c2ccc(F)cc2)CC1,Inhibition,Cavia porcellus [6],10%
same,Log P/(100-P),[20],-0.954
COC(=O)C1CCN(CCCN2CCN(c3ccc(F)cc3)CC2)CC1,inhibition,Cavia porcellus [25],inactive
COC(=O)C1CCN(CCCN2CCN(c3ccccn3)CC2)CC1,inhibition,Cavia porcellus [25],inactive

# — ChEMBL document CHEMBL1131979, “Synthesis and SAR studies of 1-substituted-n-(4-alkoxycarbonylpiperidin-1-yl)alkanes as potent antiarrhythmic agents” (Bioorg Med Chem Lett, 1999)
